Source: patent US12473250B2, “Molecular design of new antibiotics and antibiotic adjuvants against MCR strains” (priority 2019, dated 2025)
Converted amounts (≈) assume the structure as drawn.

Key:
Format in all cases: cell-based
[1] = tested on: colistin resistant MCR (+) E. Coli strains; assay: MIC, broth microdilution, compound alone; conditions: compound alone
Method: (§1) MIC experiments of the antimicrobial agents were determined by a modified broth microdilution method in accordance with the Clinical and Laboratory Standards Institute (CLSI) guidelines using 96 well culture plates. In brief, serial dilutions of all plates were prepared at different concentrations (μg). The inoculum suspension was prepared by adding isolated colonies from a 18-20 hours on TSA plate into phosphate buffer (0.31 mM, pH 7.2) or in water for injection (BBraun) and adjusting the suspension to a turbidity equivalent to 0.5 McFarland Standard. Each well contained a final bacterial concentration of approximately 5×10^5 colony forming units (CFU)/mL. The plate was covered and incubated at 35° C. for 24 hours. […] For the microdilution plates, turbidity in wells can be measured at OD600 using TECAN infinite M200Pro. MIC was determined as […] concentration that gives a 99 percent inhibition.

[2] = tested on: colistin resistant MCR (−) E. Coli strains; assay: MIC, broth microdilution, compound alone
Method: as §1

[3] = tested on: colistin resistant MCR (+) E. Coli strains; assay: Synergy study: colistin MIC in the presence of compound
Method: (§2) The MICs of the individual drugs and LC compound in combinations were determined using the broth microdilution technique as recommended by the CLSI whereby the two anti-microbial agents were added in an equal amount. (e.g.: 50 μL of Colistin: 50 μL of LC compounds). Diluted media containing compounds and antibiotics will be serially diluted 2-fold, and LC compounds and antibiotics alone or in combination will be assayed at fixed synergy concentration. In all cases, the lowest concentration at which no visible growth occurred was be recorded to be the MIC value of individual and combined antibacterial agents. The results were obtained after 24 hours of incubation.

[4] = tested on: colistin resistant MCR (−) E. Coli strains; assay: as above
Method: as §2

[5] = tested on: colistin resistant MCR (−) E. Cloacae strain 7023456439; assay: MIC, broth microdilution, compound alone; conditions: strain 7023456439 E. Cloacae
Method: as §1

[6] = tested on: colistin resistant MCR (−) E. Cloacae strain 7023456439; assay: Synergy study: colistin MIC in the presence of compound; conditions: strain 7023456439 E. Cloacae, compound at 10 μg (Table 2a: 10 ug/ml)
Method: as §2

[7] = strain 6075066346, MCR(+), compound at 5 μg (Table 2a: 5 ug/ml)
[8] = strain 6083655967, MCR(+), compound at 5 μg (Table 2a: 5 ug/ml)
[9] = strain 7103531927, MCR(+), compound at 5 μg
[10] = strain 6083672926, MCR(−), compound at 5 μg (Table 2a: 5 ug/ml)
[11] = strain 7023446108, MCR(−), compound at 5 μg (Table 2a: 5 ug/ml)
[12] = strain 7033607097, MCR(−), compound at 5 μg (Table 2a: 5 ug/ml)
[13] = strain 6083672926, MCR(−), compound at 10 μg (Table 2a: 10 ug/ml)
[14] = strain 7023446108, MCR(−), compound at 10 μg (Table 2a: 10 ug/ml)
[15] = strain 7033607097, MCR(−), compound at 10 μg (Table 2a: 10 ug/ml)

CC(C)=CCc1c(OCCCN2CCNCCNCCNCC2)ccc(C(=O)/C=C/c2ccc(OCCCN3CCNCCNCCNCC3)cc2)c1O [LC206]
MIC ([1]; strain 6075066346, MCR (+)): >50 µg/mL | MIC ([1]; strain 6083655967, MCR (+)): >50 µg/mL | MIC ([1]; strain 7103531927, MCR (+)): >50 µg/mL | MIC ([2]; strain 6083672926, MCR (−)): >50 µg/mL | MIC ([2]; strain 7023446108, MCR (−)): >50 µg/mL | MIC ([2]; strain 7033607097, MCR (−)): >50 µg/mL | Colistin MIC in the presence of the compound [3, 7]: 0.39 µg/mL | Colistin MIC in the presence of the compound [3, 8]: 0.39 µg/mL | Colistin MIC in the presence of the compound [3, 9]: 0.39 µg/mL | Colistin MIC in the presence of the compound [4, 10]: 0.39 µg/mL | Colistin MIC in the presence of the compound [4, 11]: 0.39 µg/mL | Colistin MIC in the presence of the compound [4, 12]: 0.39 µg/mL

COC(=O)C(CCCNC(=N)N)NC(=O)COc1ccc(C2COc3c(ccc4c3C=CC(C)(C)O4)C2)c(OCC(=O)NC(CCCNC(=N)N)C(=O)OC)c1 (stereo not drawn) [LC106]
MIC ([1]; strain 6075066346, MCR (+)): >25 µg/mL | MIC ([1]; strain 6083655967, MCR (+)): >25 µg/mL | MIC ([1]; strain 6103645107, MCR (+)): >25 µg/mL | MIC ([1]; strain 6123520276, MCR (+)): >25 µg/mL | MIC ([1]; strain 7013177695, MCR (+)): >25 µg/mL | MIC ([1]; strain 7023436560, MCR (+)): >25 µg/mL | MIC ([1]; strain 7023444207, MCR (+)): >25 µg/mL | MIC [5]: >25 µg/mL | MIC ([2]; strain 6083672926, MCR (−)): >25 µg/mL | MIC ([2]; strain 7023446108, MCR (−)): >25 µg/mL | MIC ([2]; strain 7033607097, MCR (−)): >25 µg/mL | Colistin MIC in the presence of the compound [6]: >25 µg/mL | Colistin MIC in the presence of the compound [4, 13]: 12.5 µg/mL | Colistin MIC in the presence of the compound [4, 14]: 6.25 µg/mL | Colistin MIC in the presence of the compound [4, 15]: 6.25 µg/mL

CC1(C)C=Cc2c(ccc3c2OCC(c2ccc(OCC(=O)NC(CCCNC(=N)N)C(N)=O)cc2OCC(=O)NC(CCCNC(=N)N)C(N)=O)C3)O1 (stereo not drawn) [LC127]
MIC ([1]; strain 6075066346, MCR (+)): >50 µg/mL | MIC ([1]; strain 6083655967, MCR (+)): >50 µg/mL | MIC ([1]; strain 6103645107, MCR (+)): >50 µg/mL | MIC ([1]; strain 6123520276, MCR (+)): >50 µg/mL | MIC ([1]; strain 7013177695, MCR (+)): >50 µg/mL | MIC ([1]; strain 7023436560, MCR (+)): >50 µg/mL | MIC ([1]; strain 7023444207, MCR (+)): >50 µg/mL | MIC [5]: >50 µg/mL | MIC ([2]; strain 6083672926, MCR (−)): >50 µg/mL | MIC ([2]; strain 7023446108, MCR (−)): >50 µg/mL | MIC ([2]; strain 7033607097, MCR (−)): >50 µg/mL | Colistin MIC in the presence of the compound [6]: >12.5 µg/mL | Colistin MIC in the presence of the compound [4, 13]: 12.5 µg/mL | Colistin MIC in the presence of the compound [4, 14]: 6.25 µg/mL | Colistin MIC in the presence of the compound [4, 15]: 6.25 µg/mL

CCN(CC)CCCOc1ccc(/C=C/C(=O)c2ccc(OCCCN(CC)CC)c(CC=C(C)C)c2O)cc1 [LC204]
MIC ([1]; strain 6075066346, MCR (+)): >50 µg/mL | MIC ([1]; strain 6083655967, MCR (+)): >50 µg/mL | MIC ([1]; strain 7103531927, MCR (+)): >50 µg/mL | MIC ([2]; strain 6083672926, MCR (−)): >50 µg/mL | MIC ([2]; strain 7023446108, MCR (−)): >50 µg/mL | MIC ([2]; strain 7033607097, MCR (−)): >50 µg/mL | Colistin MIC in the presence of the compound [3, 7]: 0.39 µg/mL | Colistin MIC in the presence of the compound [3, 8]: 0.39 µg/mL | Colistin MIC in the presence of the compound [3, 9]: 0.39 µg/mL | Colistin MIC in the presence of the compound [4, 10]: 0.39 µg/mL | Colistin MIC in the presence of the compound [4, 11]: 0.39 µg/mL | Colistin MIC in the presence of the compound [4, 12]: 0.39 µg/mL

CCN(CC)CCOc1ccc(/C=C/C(=O)c2ccc(OCCN(CC)CC)c(CC=C(C)C)c2O)cc1 [LC150]
MIC ([1]; strain 6075066346, MCR (+)): >50 µg/mL | MIC ([1]; strain 6083655967, MCR (+)): >50 µg/mL | MIC ([1]; strain 7103531927, MCR (+)): >50 µg/mL | MIC ([2]; strain 6083672926, MCR (−)): 50 µg/mL (≈ 95.7 µM) | MIC ([2]; strain 7023446108, MCR (−)): 50 µg/mL (≈ 95.7 µM) | MIC ([2]; strain 7033607097, MCR (−)): 50 µg/mL (≈ 95.7 µM) | Colistin MIC in the presence of the compound [3, 7]: 0.39 µg/mL | Colistin MIC in the presence of the compound [3, 8]: 0.195 µg/mL | Colistin MIC in the presence of the compound [3, 9]: 0.39 µg/mL | Colistin MIC in the presence of the compound [4, 10]: 0.195 µg/mL | Colistin MIC in the presence of the compound [4, 11]: 0.39 µg/mL | Colistin MIC in the presence of the compound [4, 12]: 0.195 µg/mL
